Assay results: US7375222B2, “2,4,6-Triamino-1,3,5-triazine derivative” (Astellas Pharma Inc., priority 2002, dated 2008)
Counter-ions that a name gives are not always drawn.

What was measured:
BEC 1 potassium channel = target: T1, BEC 1 potassium channel (Homo sapiens, UniProt Q9ULD8); assay: BEC 1 inhibitory activity using released amount of 86Rb ions from BEC 1-expressing cells; assay type: cell-based; details: 86Rb ion release, BEC 1-stably expressing CHO (dhfr-deficient) cell, 100 mM KCl stimulation; read-out: BEC1 IC50
T1 construct: expressed in transfected cells
T1 sequence (Q9ULD8 1-1083): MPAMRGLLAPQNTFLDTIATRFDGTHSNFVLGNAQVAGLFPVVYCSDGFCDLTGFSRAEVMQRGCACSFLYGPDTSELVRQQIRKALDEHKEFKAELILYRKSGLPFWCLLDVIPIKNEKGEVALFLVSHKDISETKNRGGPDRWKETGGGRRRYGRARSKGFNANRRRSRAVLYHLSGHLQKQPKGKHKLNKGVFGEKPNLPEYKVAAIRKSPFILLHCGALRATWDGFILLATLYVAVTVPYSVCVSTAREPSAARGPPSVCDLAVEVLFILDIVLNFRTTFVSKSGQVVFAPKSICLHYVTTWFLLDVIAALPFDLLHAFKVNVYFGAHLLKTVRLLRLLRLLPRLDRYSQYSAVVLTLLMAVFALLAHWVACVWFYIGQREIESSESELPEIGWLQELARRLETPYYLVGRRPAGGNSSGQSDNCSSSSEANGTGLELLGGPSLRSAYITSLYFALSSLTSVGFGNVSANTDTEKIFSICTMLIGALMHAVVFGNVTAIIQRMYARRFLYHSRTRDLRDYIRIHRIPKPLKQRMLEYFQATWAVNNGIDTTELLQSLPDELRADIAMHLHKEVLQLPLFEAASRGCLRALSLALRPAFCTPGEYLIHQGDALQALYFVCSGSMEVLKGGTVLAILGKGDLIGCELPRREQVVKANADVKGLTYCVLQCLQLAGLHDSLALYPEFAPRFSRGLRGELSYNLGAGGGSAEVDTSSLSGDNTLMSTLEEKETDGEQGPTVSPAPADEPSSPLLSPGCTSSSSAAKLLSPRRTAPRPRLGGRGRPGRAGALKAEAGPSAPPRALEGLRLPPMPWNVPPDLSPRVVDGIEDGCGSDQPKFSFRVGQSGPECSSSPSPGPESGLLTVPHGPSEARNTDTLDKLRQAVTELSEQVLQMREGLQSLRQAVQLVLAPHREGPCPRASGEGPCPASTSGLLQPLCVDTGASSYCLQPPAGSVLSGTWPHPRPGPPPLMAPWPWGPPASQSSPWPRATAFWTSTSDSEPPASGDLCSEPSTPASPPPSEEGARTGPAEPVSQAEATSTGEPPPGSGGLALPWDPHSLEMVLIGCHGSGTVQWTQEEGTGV
Procedure: In general, the potassium channel can pass Rb^+ ion similar to K^+ ion, so that the channel activity can be measured using release of a radioisotope ^86Rb^+ as a marker. By incubating cells expressing the novel potassium channel protein together with ^86RbCl (e.g., 18 hr, 37° C.), ^86Rb^+ can be incorporated into the cells. The cells are washed with a low K^+ concentration physiological saline (e.g., 4.5 mM K^+) and then suspended in the same solution. When a high K^+ concentration solution (e.g., 100 mM in final concentration) is added to the cell suspension, membrane potential of the cell is depolarized and the potassium channel therefore is activated. As a result, the intracellular ^86Rb^+ is released into the extracellular part, thus radioactivity of the extracellular solution can be used as a marker of the channel activity. It is possible to screen a compound and a peptide capable of modifying activity of the BEC 1 potassium channel protein, by comparing the radioactivity released into the extracellular part when the high K^+ concentration solution is added in the presence and absence of each drug to be tested.
Method for Measuring BEC 1 Inhibitory Activity of Compounds Using Released Amount of ^86Rb ions as the Index
The channel activity of BEC 1 was measured in accordance with the method described in WO 99/37677, using amount of a radioisotope ^86Rb ion released from a BEC 1-expressing cell as the index. That is, when an ^86Rb ion-incorporated BEC 1-expressing cell was stimulated with 100 mM KCl, the radioactivity released from the cell was used as the channel activity of BEC 1. The ^86Rb ions were incorporated into a BEC 1-stably expressing cell by culturing the cell (3 hours, 37° C.) in the presence of ^86RbCl (0.5 μCi/ml), and the un-incorporated ^86Rb ions were removed by washing three times with HEPES-buffered saline (pH 7.4, 2.5 mM KCl). The cells were incubated with HEPES-buffered saline containing a compound to be tested at room temperature for 15 minutes and then further incubated with 100 mM KCl-containing HEPES-buffered saline (pH 7.4) containing the compound to be tested at room temperature for 5 minutes. The extracellular medium was recovered, and then the remaining cells were lysed with 0.1 N NaOH and recovered.
The Cerenkov radioactivity of the extracellular medium and cell lysate was respectively measured, and their total was used as the total radioactivity. The released amount of ^86Rb ions was expressed by the percentage of extracellular medium radioactivity based on the total radioactivity. The value obtained in the presence of the compound was used as a test value, and the value obtained in the absence of the compound as a control value and the value obtained when not stimulated with 100 mM KCl as a blank value. Inhibitory action of each compound was expressed by % inhibition, namely (control value−test value)×100/(control value−blank value), or by an IC50 value calculated from the % inhibition. As the test results of typical compounds are shown in the following Tables 2 and 3, it was confirmed that said compounds have the BEC 1 potassium channel inhibitory action.
In this connection, as the BEC 1-expressing cell, a BEC 1-stably expressing cell prepared in accordance with the method described in WO 99/37677 using a dihydrofolate reductase (dhfr)-deficient strain of a Chinese hamster ovary cell was used.

SMILES	melting point [°C]	IC50 (BEC 1 potassium channel) [nM]
Fc1ccc(Nc2nc(NCc3ccnc(F)c3)nc(Nc3ccc(F)cc3)n2)cc1 (as salt: HCl) [Example 743]	191 to 192	–
Fc1ccc(Nc2nc(NCc3ccnc(F)c3)nc(Nc3ccccc3)n2)cc1 (as salt: HCl) [Example 744]	175 to 177	–
OCCCCNc1nc(Nc2ccccc2)nc(Nc2ccc(F)cc2)n1 (as salt: HCl) [Example 775]	185 to 186	–
Fc1ccc(Nc2nc(NCc3ccnc(F)c3)nc(Nc3ccc(Cl)cc3)n2)cc1 (as salt: HCl) [Example 797]	214 to 215	–
C#CCNc1nc(Nc2ccccc2)nc(Nc2ccccc2)n1 (as salt: HCl) [compound 16]	195 to 197	–
CSCCCNc1nc(Nc2ccccc2)nc(Nc2ccccc2)n1 (as salt: HCl) [compound 19]	162 to 163	–
Fc1ccc(Nc2nc(NCc3ccco3)nc(Nc3ccc(F)cc3)n2)cc1 (as salt: HCl) [compound 30]	179 to 180	–
Fc1ccc(Nc2nc(NCc3cccs3)nc(Nc3ccc(F)cc3)n2)cc1 (as salt: HCl) [compound 31]	180 to 182	–
OCCCCCNc1nc(Nc2ccc(F)cc2)nc(Nc2ccc(F)cc2)n1 (as salt: HCl) [compound 37]	162 to 163	–
OCCOCCNc1nc(Nc2ccc(F)cc2)nc(Nc2ccc(F)cc2)n1 (as salt: HCl) [compound 38]	151 to 152	–
[O-][n+]1ccc(CCNc2nc(Nc3ccccc3)nc(Nc3ccccc3)n2)cc1 (as salt: salt) (hydrate or solvate) [Example 740]	161 to 162	–
Nc1cc(CNc2nc(Nc3ccccc3)nc(Nc3ccc(F)cc3)n2)ccn1 (as salt: salt) (hydrate or solvate) [Example 747]	164 to 199	–
OCCCNc1nc(Nc2ccccc2)nc(Nc2ccc(F)cc2)n1 (hydrate or solvate) [Example 774]	188 to 189	–
CCN(CC)CCCC(C)Nc1nc(Nc2ccccc2)nc(Nc2ccc(F)cc2)n1 (centres unmarked) (hydrate or solvate) [Example 794]	184 to 187	–
Nc1cccc(CNc2nc(Nc3ccccc3)nc(Nc3ccc(F)cc3)n2)n1 (hydrate or solvate) [Example 819]	164 to 165	–

Next, values leading:

melting point [°C]	IC50 (BEC 1 potassium channel) [nM]	SMILES
194 to 195	–	Cc1ccc(Nc2nc(Nc3ccccc3)nc(NC(C)C)n2)cc1 (as salt: HCl) [Ex 47]
198 to 200	–	CC(C)Nc1nc(Nc2ccccc2)nc(Nc2ccc(C(F)(F)F)cc2)n1 (as salt: HCl) [Ex 49]
112 to 113	–	CC(CCCC(C)(C)O)Nc1nc(Nc2ccccc2)nc(Nc2ccccc2)n1 (centres unmarked) (as salt: HCl) [Example 742]
179 to 181	–	COCCNc1nc(Nc2ccccc2)nc(Nc2ccc(F)cc2)n1 (as salt: HCl) [Example 771]
209 to 211	–	OCCNc1nc(Nc2ccccc2)nc(Nc2ccc(F)cc2)n1 (as salt: HCl) [Example 773]
178 to 180	–	OCCCCCNc1nc(Nc2ccccc2)nc(Nc2ccc(F)cc2)n1 (as salt: HCl) [Example 776]
141 to 142	–	OCCOCCNc1nc(Nc2ccccc2)nc(Nc2ccc(F)cc2)n1 (as salt: HCl) [Example 777]
193 to 195	–	C[C@H](CO)Nc1nc(Nc2ccccc2)nc(Nc2ccc(F)cc2)n1 (as salt: HCl) [Example 779]
154 to 156	–	CN(C)Nc1nc(Nc2ccccc2)nc(Nc2ccc(F)cc2)n1 (as salt: HCl) [Example 791]
169 to 170	–	COCCNc1nc(Nc2ccccc2)nc(Nc2ccc(OC)cc2)n1 (as salt: HCl) [Example 808]
154 to 155	–	COCCCNc1nc(Nc2ccccc2)nc(Nc2ccccc2)n1 (as salt: HCl) [compound 18]
191 to 192	–	OCCCNc1nc(Nc2ccccc2)nc(Nc2ccccc2)n1 (as salt: HCl) [compound 21]
167 to 169	–	OCCOCCNc1nc(Nc2ccccc2)nc(Nc2ccccc2)n1 (as salt: HCl) [compound 23]
166 to 167	–	Fc1ccc(CNc2nc(Nc3ccc(F)cc3)nc(Nc3ccc(F)cc3)n2)cc1 (as salt: HCl) [compound 29]
175 to 176	–	COCCNc1nc(Nc2ccc(F)cc2)nc(Nc2ccc(F)cc2)n1 (as salt: HCl) [compound 35]
180 to 182	–	COc1cccc(Nc2nc(Nc3cccc(OC)c3)nc(NC(C)C)n2)c1 (as salt: HCl) [compound 40]
191 to 193	–	c1ccc(Nc2nc(NCC3CCOCC3)nc(Nc3ccccc3)n2)cc1 (as salt: salt) (hydrate or solvate) [Example 741]
144 to 148	–	Fc1ccc(Nc2nc(NCc3ccco3)nc(Nc3ccccc3)n2)cc1 (hydrate or solvate) [Example 764]
78 to 81	390	CCCCCNc1nc(Nc2ccccc2)nc(Nc2ccccc2)n1 [compound 14]
128 to 129	290	COCCNc1nc(Nc2ccccc2)nc(Nc2ccccc2)n1 [compound 17]
118 to 119	190	OCCCCCNc1nc(Nc2ccccc2)nc(Nc2ccccc2)n1 [compound 22]
205 to 206	220	CC(C)Nc1nc(Nc2ccccc2)nc(Nc2ccc(F)cc2)n1.Cl [compound 45, N-(4-fluorophenyl)-N′-isopropyl-N″-phenyl-1,3,5-triazine-2,4,6-triamine hydrochloride]
